Holding throughout (assay type): in vivo
In experiment [1] the test system is TgNR4A3^CML mice infused with angiotensin II. Description: Ang II-induced aortic aneurysm in TgNR4A3^CML mice (ultrasonography, histology). As for the experimental part: (A) Diameter of the aorta of non-transgenic mice (controls; C57BL/6J; WT) and transgenic mice for human NR4A3 (TgNR4A3^CML) infused with saline or angiotensin II (Ang II; 1000 ng/kg/min for 28 days). A group of TgNR4A3^CML mice infused with Ang II was treated with AMPT (100 mg/kg, via IP, administered twice a day from the day before implementing the Ang II pump). The diameter of the aorta was determined by means of ultrasonography. Values are expressed as mean±SEM (at least n=7). P<0.05: * vs. time 0 of the same experimental group; # vs. the same animal infused with saline at the same time; $ vs. TgNR4A3CML infused with Ang II and treated with AMPT. (B) Representative images obtained by means of ultrasonography of the cross-sectional view of the aorta of each of the experimental groups indicated in (A) after 4 weeks of treatment. (C) Representative photographs of the aortas of the mice in the 5 groups at the end of the study.
(§1) FIG. 6. […] Non-transgenic (controls; C57BL/6J; WT) and transgenic mice for human NR4A3 (TgNR4A3^CML) were infused with saline or angiotensin II (Ang II; 1000 ng/kg/min for 28 days). A group of transgenic animals infused with Ang II were treated or not with AMPT (100 mg/kg, via IP, administered twice a day from the day before implementing the Ang II pump). (A and B) Representative images of the histological analysis using Masson's trichrome (A) and orcein (B) staining in sections of the abdominal aorta of the indicated study groups. Arrows indicate elastic fibre ruptures. (C) Representative staining for MAC3 (macrophage marker) in sections of the abdominal aorta of each one of the experimental groups. Arrows indicate positive regions for MAC3. Bar: 100 microns.
(§2) The studies were developed in male ApoE^−/− mice who were acclimatised to the facility for 1 week before the study. Animals were infused with Ang II (1000 ng/kg/min) by means of osmotic minipumps (model 1004, Alzet) implemented subcutaneously in the interscapular space of the mice after anesthesia with isoflurane. The procedure lasts approximately 15 minutes per animal. Immediately after surgery, antibiotics (penicillin, 22,000 u/Kg, i.m.) and analgesics (buprenorphine 0.05 mg/Kg, i.m.) were administered for preventing infections and limiting animal discomfort, which were kept on a heating pad until they woke up after the intervention and were carefully monitored during the post-surgery period. A group of the mice infused with Ang II received AMPT treatment (100 mg/kg, via i.p) administered twice daily from the day before implementing the Ang II pump and throughout the study (28 days). The control group consisted of ApoE^−/− mice infused with saline. Blood pressure was assessed weekly (at 0, 7, 14, 21 and 28 days) by means of the tail plethysmography method. The diameter of the aorta was also assessed weekly by means of abdominal ultrasound using ultrasound equipment (Vevo2100 Imaging systems, Visualsonics) with a 30 MHz transducer. To do this, the mice were anesthetised by means of 1.5% isofluorane inhalation and secured in a supine position on a heating platform. After shaving the precordial region, the transducer was applied to the abdominal wall to take measurements of the abdominal aorta. Those abdominal aortas with external diameters greater than or equal to 1.5 mm were considered aneurysmal. All measurements were carried out from the images captured by using the analysis software. After 4 weeks, the animals were euthanised by means of terminal intraperitoneal anesthesia with a mixture of medetomidine (1 mg/kg) and ketamine (75 mg/kg) in saline (final volume of 200 μl), aortas were immediately harvested, they were examined to determine the presence of aneurysms and were immediately frozen in nitrogen or fixed in paraformaldehyde for macroscopic characterisation or to be embedded in paraffin and processed for histochemical studies.
The studies were developed in a similar way to that described in Example 3. […]

Experiment [2] relates to ApoE^−/− mice infused with angiotensin II. Nature of the experiment: Ang II-induced aortic aneurysm in ApoE^−/− mice (ultrasonography, histology). On the procedure: FIG. 3. […] (A) Graph which represents the weekly evolution of the aortic diameter of ApoE^−/− mice infused with saline or angiotensin II (Ang II; 1000 ng/kg/min for 28 days) analysed by means of ultrasonography. Animals infused with Ang II were treated or not with AMPT (100 mg/kg via IP, administered twice a day from the day before implementing the Ang II pump). The values correspond to the mean±SEM (saline, n=9; Ang II, n=14; Ang II+AMPT, n=19). P<0.05: * vs. time 0 of the same experimental group; # vs. animals infused with saline at the same time; $ vs. animals infused with Ang II (not treated with AMPT) at the same time. (B) Representative images obtained by means of ultrasonography of the cross-sectional view of the aorta of each of the experimental groups indicated in (A) after 4 weeks of treatment. (C) Representative photographs of the aortas of the mice in the 3 study groups at the end of the study.
as §1, with “4.” for “6.”, “ApoE^−/−” for “Non-transgenic (controls; C57BL/6J; WT) and transgenic”, “mice” for “mice for human NR4A3 (TgNR4A3^CML)”, “Animals” for “A group of transgenic animals”
as §2

Experiment [3] is described as follows: Systolic blood pressure by tail plethysmography in ApoE^−/− mice infused with Ang II. To be noted: for systolic pressure: Ang II 1000 ng/kg/min + AMPT 100 mg/kg i.p. twice daily. On the procedure:
as §2

Experiment [4] is described as follows: Systolic blood pressure in TgNR4A3^CML mice infused with Ang II. To be noted: for systolic pressure: Ang II + AMPT. On the procedure: as §2
The studies were developed in a similar way to that described in Example 3. In this case, the effect of the infusion of Ang II on the diameter of the aorta in control animals (C57BL/6J; WT) and in transgenic mice for NR4A3 (TgNR4A3^CML) was analysed. The transgenic mice infused with Ang II were divided into two groups, one of which received AMPT treatment from the day before implementation of the Ang II pumps, as described in Example 3, while the second group only received the vehicle in which this drug was administered (saline). The control groups consisted of transgenic mice and non-transgenic controls infused with saline.

[5] abbreviates: TgNR4A3^CML mice, Ang II, AMPT treatment.
Setting [6] is: ApoE^−/− mice, Ang II, AMPT 100 mg/kg i.p. twice daily, 28 days.

In the case of `CC(N)(Cc1ccc(O)cc1)C(=O)O` (stereo not drawn) [AMPT, alpha-methyl-p-tyrosine], the “development of aortic aneurysm” value in experiment [1] (TgNR4A3^CML mice infused with Ang II 1000 ng/kg/min for 28 days, AMPT 100 mg/kg IP twice a day) is listed as “inhibits the development of aortic aneurysm”; in experiment [2] (ApoE^−/− mice infused with Ang II 1000 ng/kg/min for 28 days, AMPT 100 mg/kg IP twice a day), “inhibits the development of aortic aneurysm”. Moreover, the “Ang II-induced increase in aortic diameter (ultrasonography)” value in experiment [1] (TgNR4A3^CML mice, AMPT 100 mg/kg i.p. twice daily, after 21 and 28 days, values similar to WT mice infused with Ang II) was “significantly prevented this effect”; in experiment [2] (ApoE^−/− mice, AMPT 100 mg/kg i.p. twice daily, significant after 14 days, accentuated until 28 days) it was “reduced the increase in aortic diameter to values similar to those of control animals”. For the same molecule, the “structural alterations and inflammatory infiltrate in the aorta” value in experiment [1] (TgNR4A3^CML mice, Ang II 1000 ng/kg/min for 28 days, AMPT 100 mg/kg IP twice a day) is “limits structural alterations and inflammatory infiltrate”; in experiment [2] (ApoE^−/− mice, Ang II 1000 ng/kg/min for 28 days, AMPT 100 mg/kg IP twice a day) it was “limits structural alterations and inflammatory infiltrate”. In experiment [1] (setting [5]), the “destructuring and rupture of the elastic laminae (orcein staining)” value is “limited the destructuring and rupture of the elastic laminae”. Also, the “vascular inflammatory infiltrate (MAC3 immunohistochemistry)” value in experiment [1] (setting [5]) is given as “reduced the important vascular inflammatory infiltrate”. In experiment [1] (setting [5]), the “vascular remodelling and collagen deposition (Masson's trichrome)” value was “attenuated the exacerbated vascular remodelling and collagen deposition”. In addition, the “disruption and rupture of elastic fibers (orcein staining)” value in experiment [2] (setting [6]) is “limited the disruption and rupture of elastic fibers”. Besides, in experiment [2] (setting [6]), the “macrophage (MAC3-positive cells) infiltrate in the vascular wall” value is “prevented the significant macrophage (MAC3-positive cells) infiltrate”. In experiment [2] (setting [6]), the “vascular remodelling / collagen deposition (Masson's trichrome)” value is “attenuated”. For the same molecule, the systolic pressure came to 100.55 mm Hg in experiment [3] (day 0, mean ± SEM); 133.99 mm Hg in experiment [3] (day 7, mean ± SEM); 136.36 mm Hg in experiment [3] (day 14, mean ± SEM); 143.34 mm Hg in experiment [3] (day 21, mean ± SEM); 154.46 mm Hg in experiment [3] (day 28, mean ± SEM); 100.19 mm Hg in experiment [4] (day 0, mean ± SEM). Also, the systolic pressure in experiment [4] (day 7, mean ± SEM) was 111.79 mm Hg; in experiment [4] (day 14, mean ± SEM), 129.03 mm Hg; in experiment [4] (day 21, mean ± SEM), 146.44 mm Hg; in experiment [4] (day 28, mean ± SEM) it was 158.59 mm Hg. Moreover, the “effect of AMPT treatment on Ang II-increased blood pressure” value in experiment [3] (Ang II infusion, AMPT 100 mg/kg i.p. twice daily, 28 days) is recorded as “not significantly altered”; in experiment [4] (Ang II infusion, AMPT 100 mg/kg i.p. twice daily), “without significant differences”.
